The NIST ThermoML archive (doi:10.1016/j.jct.2008.07.009)

Assay: xn = mol fraction of the nth substance listed
Details: 101 kPa, Liquid, Vibrating tube method

CC(=O)N1CCOCC1 [4-acetylmorpholine] + c1ccccc1
mass density [kg/m3]
Details | 293.15 K | 303.15 K | 313.15 K | 323.15 K | 333.15 K | 343.15 K
x2 = 0.0546 | 1104.6 | 1096.7 | 1088.2 | 1079.6 | 1071 | 1062.4
x2 = 0.1127 | 1094.9 | 1086.8 | 1078.1 | 1069.3 | 1060.6 | 1051.8
x2 = 0.1568 | 1087.2 | 1079 | 1070.2 | 1061.2 | 1052.4 | 1043.5
x2 = 0.2099 | 1078 | 1069.6 | 1060.6 | 1051.3 | 1042.3 | 1033.2
x2 = 0.2673 | 1067.5 | 1058.9 | 1049.8 | 1040.5 | 1031.4 | 1022.1
x2 = 0.3128 | 1059 | 1050.2 | 1040.9 | 1031.6 | 1022.2 | 1012.9
x2 = 0.3564 | 1050.6 | 1041.7 | 1032.3 | 1022.8 | 1013.4 | 1003.9
x2 = 0.4056 | 1040.8 | 1031.7 | 1022.2 | 1012.5 | 1002.9 | 993.3
x2 = 0.4562 | 1030.1 | 1020.8 | 1011.2 | 1001.4 | 991.7 | 981.8
x2 = 0.5039 | 1019.5 | 1010.1 | 1000.3 | 990.4 | 980.6 | 970.6
x2 = 0.5683 | 1004.5 | 994.9 | 984.9 | 974.9 | 964.9 | 954.8
x2 = 0.6138 | 993.3 | 983.5 | 973.5 | 963.4 | 953.2 | 942.6
x2 = 0.6866 | 974.4 | 964.5 | 954.3 | 943.9 | 933.6 | 923.3
x2 = 0.7437 | 958.7 | 948.6 | 938.3 | 927.7 | 917.6 | 907.1
x2 = 0.8033 | 941.3 | 931.1 | 920.7 | 910.2 | 899.7 | 889.2
x2 = 0.8659 | 922.4 | 912.1 | 901.6 | 891 | 880.5 | 869.8
x2 = 0.9154 | 906.8 | 896.3 | 885.8 | 875.2 | 864.6 | 853.8
x2 = 0.9687 | 889.4 | 878.9 | 868.4 | 857.7 | 847 | 836.3
